Positions of bridges follow the written chain, without caps; N, C: chain ends. Residues, ends and D or L forms follow the SMILES beside them.
molecular target: T1, HTRA1^FL (Homo sapiens, UniProt Q92743); experiment: HTRA1^FL enzyme inhibition assay with synthetic substrate H2-OPT; format: biochemical
T1 construct: Human full-length HTRA1 (HTRA1^FL, Q23-P480); made in house; host or cells: Trichoplusia ni cells
Experimental: Assays with the fluorescence-quenched synthetic substrate Mca-IRRVSYSFK(Dnp)K (H2-OPT)[38],[60] were carried out essentially as described. CKP stock solutions in DMSO were diluted in TNC buffer (dilution series for IC50 determinations, or final concentration of 2 µM for selectivity assay or as indicated for HTRA1/4 mutants) and incubated with enzymes in 96-well black optical bottom plates for 60 min at 37 °C. For selectivity experiments we used the 7mer-ABP as inhibitor, which was incubated with the proteases for 15 min at 37 °C. A 10 mM stock solution of H2-OPT in DMSO was diluted with water, prewarmed at 37 °C and then added to the CKP-enzyme mixtures. The final concentrations in the reaction mixtures were: 1 nM HTRA1^FL, 3 nM HTRA1^PD/PDZ, 1 nM HTRA1^PD, 1 nM HTRA2^PD/PDZ, 3 nM HTRA3^FL, 60 nM HTRA3^PD/PDZ, 6 nM HTRA4^FL, 1 µM HTRA4^PD/PDZ, 1 nM mouse HTRA1^PD, 25 nM HTRA1^PD-A202Y, 1 µM HTRA4^PD/PDZ-Y200A, 0.5 mM 7mer-ABP, 5 µM H2-OPT, and 0.25% DMSO. The kinetics of substrate cleavage was measured at 37 °C on a SpectraMax M5 microplate reader with excitation of 328 nm and emission of 393 nm. The determined initial rates of cleavage were expressed as percent of control (DMSO control) after subtracting the baseline rates (without enzyme). IC50 values were determined by Sigmoidal 4PL modeling of multiple data points from serial dilutions of CKPs using Prism 9 software (GraphPad). For selectivity assays with HTRA1-4^PD/PDZ constructs, the specific activities of the enzymes and enzyme:CKP inhibitor ratios were as follows: HTRA1^PD/PDZ, 12560 mRFU/min/nM – 1:667; HTRA2^PD/PDZ, 32300 mRFU/min/nM – 1:2000; HTRA3^PD/PDZ, 962 mRFU/min/nM – 1:33; HTRA4^PD/PDZ, 18 mRFU/min/nM – 1:2.

T1 sequence (Q92743 23-480): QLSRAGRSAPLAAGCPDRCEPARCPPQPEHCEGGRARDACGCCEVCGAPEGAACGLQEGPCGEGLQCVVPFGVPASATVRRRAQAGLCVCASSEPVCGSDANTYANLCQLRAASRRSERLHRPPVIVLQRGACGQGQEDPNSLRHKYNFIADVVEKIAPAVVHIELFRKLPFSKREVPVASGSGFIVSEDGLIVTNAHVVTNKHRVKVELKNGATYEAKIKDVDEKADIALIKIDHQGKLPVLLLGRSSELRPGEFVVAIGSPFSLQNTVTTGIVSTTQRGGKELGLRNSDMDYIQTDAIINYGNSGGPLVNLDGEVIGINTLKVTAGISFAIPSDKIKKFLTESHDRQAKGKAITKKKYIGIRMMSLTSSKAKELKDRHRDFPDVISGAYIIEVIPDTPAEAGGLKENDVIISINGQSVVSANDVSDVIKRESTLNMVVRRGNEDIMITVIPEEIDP

| Compound | IC50 [nM] |
| --- | --- |
| CC[C@H](C)[C@H](NC(=O)[C@H](CCC(N)=O)NC(=O)[C@H](CCCNC(=N)N)NC(=O)[C@H](CC(C)C)NC(=O)CNC(=O)[C@H](Cc1c[nH]c2ccccc12)NC(=O)CNC(=O)[C@@H]1CSSC[C@@H]2NC(=O)[C@H](CC(=O)O)NC(=O)[C@H](CC(=O)O)NC(=O)[C@H](Cc3c[nH]cn3)NC(=O)[C@H]([C@@H](C)O)NC(=O)[C@H](CCCCN)NC(=O)[C@@H]3CSSC[C@H](NC(=O)[C@H]([C@@H](C)O)NC(=O)[C@H](CCC(N)=O)NC(=O)[C@H](CSSC[C@H](NC(=O)[C@@H](NC(=O)[C@@H]4CCCN4C(=O)[C@H](CC(=O)O)NC(=O)[C@H](C)NC(=O)[C@@H](N)Cc4c[nH]cn4)[C@@H](C)CC)C(=O)NCC(=O)N[C@@H](Cc4c[nH]cn4)C(=O)N[C@@H](CCC(N)=O)C(=O)N3)NC(=O)[C@H](Cc3ccccc3)NC(=O)[C@H](Cc3c[nH]c4ccccc34)NC(=O)[C@H](C)NC(=O)CNC(=O)[C@H](CO)NC2=O)C(=O)N[C@@H](Cc2ccc(O)cc2)C(=O)N[C@@H](Cc2ccc(O)cc2)C(=O)N[C@@H](C)C(=O)N[C@@H]([C@@H](C)O)C(=O)N[C@@H](Cc2c[nH]c3ccccc23)C(=O)N[C@@H](CO)C(=O)N1)C(=O)N[C@@H](CC(=O)O)C(N)=O [1A8.L1.2] (H-HADPICGHQCKTHDDCSGAWFCQTCYYATWSCGWGLRQID-NH2; disulfide 6-22, 10-25, 16-32) | 3.2 ± 0.1 |
| CC[C@H](C)[C@H](NC(=O)[C@H](CCC(N)=O)NC(=O)[C@H](CCCNC(=N)N)NC(=O)[C@H](CC(C)C)NC(=O)CNC(=O)[C@H](Cc1c[nH]c2ccccc12)NC(=O)CNC(=O)[C@@H]1CSSC[C@@H]2NC(=O)[C@H](CC(=O)O)NC(=O)[C@H](CC(=O)O)NC(=O)[C@H](Cc3c[nH]cn3)NC(=O)[C@H]([C@@H](C)O)NC(=O)[C@H](CCCCN)NC(=O)[C@@H]3CSSC[C@H](NC(=O)[C@H]([C@@H](C)O)NC(=O)[C@H](CCC(N)=O)NC(=O)[C@H](CSSC[C@H](NC(=O)[C@@H](NC(=O)[C@@H]4CCCN4C(=O)[C@H](CC(=O)O)NC(=O)[C@H](C)NC(=O)[C@@H](N)Cc4c[nH]cn4)[C@@H](C)CC)C(=O)N[C@@H](CC(N)=O)C(=O)N[C@@H](CCCCN)C(=O)N4CCC[C@H]4C(=O)N3)NC(=O)[C@H](Cc3ccccc3)NC(=O)[C@H](Cc3c[nH]c4ccccc34)NC(=O)[C@H](C)NC(=O)CNC(=O)[C@H](CO)NC2=O)C(=O)N[C@@H](Cc2ccc(O)cc2)C(=O)N[C@@H](Cc2ccc(O)cc2)C(=O)N[C@@H](C)C(=O)N[C@@H](CO)C(=O)N[C@@H](Cc2c[nH]c3ccccc23)C(=O)N[C@@H](CO)C(=O)N1)C(=O)N[C@@H](CC(=O)O)C(N)=O [1A8.L5.2] (H-HADPICNKPCKTHDDCSGAWFCQTCYYASWSCGWGLRQID-NH2; disulfide 6-22, 10-25, 16-32) | 2 ± 0.2 |
| CC[C@H](C)[C@H](NC(=O)[C@H](CCC(N)=O)NC(=O)[C@H](CCCNC(=N)N)NC(=O)[C@H](CC(C)C)NC(=O)CNC(=O)[C@H](Cc1c[nH]c2ccccc12)NC(=O)CNC(=O)[C@@H]1CSSC[C@@H]2NC(=O)[C@H](CC(=O)O)NC(=O)[C@H](CC(=O)O)NC(=O)[C@H](Cc3c[nH]cn3)NC(=O)[C@H]([C@@H](C)O)NC(=O)[C@H](CCCCN)NC(=O)[C@@H]3CSSC[C@H](NC(=O)[C@H]([C@@H](C)O)NC(=O)[C@H](CCC(N)=O)NC(=O)[C@H](CSSC[C@H](NC(=O)[C@@H](NC(=O)[C@@H]4CCCN4C(=O)[C@H](CC(=O)O)NC(=O)[C@H](C)NC(=O)[C@@H](N)Cc4c[nH]cn4)[C@@H](C)CC)C(=O)NCC(=O)N[C@@H](CO)C(=O)N[C@@H](CCC(N)=O)C(=O)N3)NC(=O)[C@H](Cc3ccccc3)NC(=O)[C@H](Cc3c[nH]c4ccccc34)NC(=O)[C@H](C)NC(=O)CNC(=O)[C@H](CO)NC2=O)C(=O)N[C@@H](Cc2ccc(O)cc2)C(=O)N[C@@H](Cc2ccc(O)cc2)C(=O)N[C@@H](C)C(=O)N[C@@H]([C@@H](C)O)C(=O)N[C@@H](Cc2c[nH]c3ccccc23)C(=O)N[C@@H](CO)C(=O)N1)C(=O)N[C@@H](CC(=O)O)C(N)=O [1A8.L1.1] (H-HADPICGSQCKTHDDCSGAWFCQTCYYATWSCGWGLRQID-NH2; disulfide 6-22, 10-25, 16-32) | 2.3 ± 0.1 |
| CC[C@H](C)[C@H](NC(=O)[C@H](CCC(N)=O)NC(=O)[C@H](CCCNC(=N)N)NC(=O)[C@H](CC(C)C)NC(=O)CNC(=O)[C@H](Cc1c[nH]c2ccccc12)NC(=O)CNC(=O)[C@@H]1CSSC[C@@H]2NC(=O)[C@H](CC(=O)O)NC(=O)[C@H](CC(=O)O)NC(=O)[C@H](Cc3c[nH]cn3)NC(=O)[C@H]([C@@H](C)O)NC(=O)[C@H](CC(=O)O)NC(=O)[C@@H]3CSSC[C@H](NC(=O)[C@H]([C@@H](C)O)NC(=O)[C@H](CCC(N)=O)NC(=O)[C@H](CSSC[C@H](NC(=O)[C@@H](NC(=O)[C@@H]4CCCN4C(=O)[C@H](CC(=O)O)NC(=O)[C@H](C)NC(=O)[C@@H](N)Cc4c[nH]cn4)[C@@H](C)CC)C(=O)N[C@@H](CC(N)=O)C(=O)N[C@@H](CCCCN)C(=O)N4CCC[C@H]4C(=O)N3)NC(=O)[C@H](Cc3ccccc3)NC(=O)[C@H](Cc3c[nH]c4ccccc34)NC(=O)[C@H](C)NC(=O)CNC(=O)[C@H](CO)NC2=O)C(=O)N[C@@H](Cc2ccc(O)cc2)C(=O)N[C@@H](Cc2ccc(O)cc2)C(=O)N[C@@H](C)C(=O)N[C@@H]([C@@H](C)O)C(=O)N[C@@H](Cc2c[nH]c3ccccc23)C(=O)N[C@@H](CO)C(=O)N1)C(=O)N[C@@H](CC(=O)O)C(N)=O [1A8.K11D] (H-HADPICNKPCDTHDDCSGAWFCQTCYYATWSCGWGLRQID-NH2; disulfide 6-22, 10-25, 16-32) | 1.2 ± 0.4 |
| CC[C@H](C)[C@H](NC(=O)[C@H](CCC(N)=O)NC(=O)[C@H](CCCNC(=N)N)NC(=O)[C@H](CC(C)C)NC(=O)CNC(=O)[C@H](Cc1c[nH]c2ccccc12)NC(=O)CNC(=O)[C@@H]1CSSC[C@@H]2NC(=O)[C@H](CC(=O)O)NC(=O)[C@H](CC(=O)O)NC(=O)[C@H](Cc3c[nH]cn3)NC(=O)[C@H]([C@@H](C)O)NC(=O)[C@H](CCCCN)NC(=O)[C@@H]3CSSC[C@H](NC(=O)[C@H]([C@@H](C)O)NC(=O)[C@H](CCC(N)=O)NC(=O)[C@H](CSSC[C@H](NC(=O)[C@@H](NC(=O)[C@@H]4CCCN4C(=O)[C@H](CC(=O)O)NC(=O)[C@H](C)NC(=O)[C@@H](N)Cc4c[nH]cn4)[C@@H](C)CC)C(=O)N[C@@H](CC(N)=O)C(=O)N[C@@H](CCCCN)C(=O)N4CCC[C@H]4C(=O)N3)NC(=O)[C@H](Cc3ccccc3)NC(=O)[C@H](Cc3c[nH]c4ccccc34)NC(=O)[C@H](C)NC(=O)CNC(=O)[C@H](CO)NC2=O)C(=O)N[C@@H](Cc2ccc(O)cc2)C(=O)N[C@@H](CC(C)C)C(=O)N[C@@H](C)C(=O)N[C@@H]([C@@H](C)O)C(=O)N[C@@H](Cc2c[nH]c3ccccc23)C(=O)N[C@@H](CO)C(=O)N1)C(=O)N[C@@H](CC(=O)O)C(N)=O [Y27L] (H-HADPICNKPCKTHDDCSGAWFCQTCYLATWSCGWGLRQID-NH2; disulfide 6-22, 10-25, 16-32) | 49.9 ± 3.8 |
